Experimental findings from patent US12410171B2, “Tropomyosin receptor kinase (TRK) degradation compounds and methods of use” (Cullgen (Shanghai), Inc., priority 2020, dated 2025) are described below.

Molecules are shown by their SMILES. Read-outs that look alike come from different tables or passages of the source. Bounds are passed on as bounds.

Assay [1] has as its system KM12 cells. The experiment in a line: KM12 cell viability (CellTiter-Glo). Type of assay: cell-based. Particulars: Homo sapiens. In short, it runs like this:
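KM12 cells seeded at 5000 per well in RPMI 1640 + 10% FBS and exposed 3 days to serial dilutions (11-point 3-fold, 8-point 3-fold from 1000 nM, or 12-point 2-fold). Viability by CellTiter-Glo; IC50 from least-squares nonlinear regression.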
(In ATP-based viability assays light output follows the ATP content of the culture.)

In assay [2] the target is T1, TPM3-TRKA fusion protein (Homo sapiens, UniProt P04629).
T1 construct: The resulted chimeric proteins always retain the kinase domain of TRK proteins; TPM3 (fusion partner, N-terminal part of tropomyosin alpha-3, P06753); endogenous in cells; host or cells: KM12 colon cancer cells; the other entry of the earlier key: TPM3 (P06753, Tropomyosin alpha-3 chain)
T1 sequence (P04629 with tags, fused parts or gaps): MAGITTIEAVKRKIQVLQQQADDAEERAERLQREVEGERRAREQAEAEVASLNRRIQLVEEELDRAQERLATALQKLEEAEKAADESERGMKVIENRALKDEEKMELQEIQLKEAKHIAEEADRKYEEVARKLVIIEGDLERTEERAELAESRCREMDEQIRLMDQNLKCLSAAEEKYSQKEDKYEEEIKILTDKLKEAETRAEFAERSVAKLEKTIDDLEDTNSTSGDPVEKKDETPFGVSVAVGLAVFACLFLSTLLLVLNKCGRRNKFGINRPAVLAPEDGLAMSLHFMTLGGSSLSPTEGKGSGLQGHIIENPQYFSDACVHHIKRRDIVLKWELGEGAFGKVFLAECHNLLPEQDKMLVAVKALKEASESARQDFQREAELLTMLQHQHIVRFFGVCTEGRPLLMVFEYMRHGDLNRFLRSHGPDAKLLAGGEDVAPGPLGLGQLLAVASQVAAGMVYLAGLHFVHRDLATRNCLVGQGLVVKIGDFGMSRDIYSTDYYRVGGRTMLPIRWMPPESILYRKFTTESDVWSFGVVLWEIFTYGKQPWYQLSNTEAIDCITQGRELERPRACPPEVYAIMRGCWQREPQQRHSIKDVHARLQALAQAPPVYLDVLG
The experiment in a line: TPM3-TRKA fusion protein levels in KM12 cells (Western blot). The assay is classed as cell-based. The note with it: read-out: Degradation (at 10 nM). In short, it runs like this: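 KM12 colon cancer cells were treated with DMSO or compounds at 0.1–100 nM, 0.4–30 nM or other stated concentrations for 4, 8–16 or 16 h. RIPA lysates were BCA-normalized and resolved by SDS-PAGE. TPM3-TRKA was detected by chemiluminescent Western blot, with bands quantified by densitometry.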
On the technique in general: In western blotting, separated proteins are transferred to a membrane and probed.

[3] abbreviates: 72 h, KM12 cell viability, CellTiter-Glo, three days treatment, read-out: IC50.
[4] abbreviates: 16 h, TPM3-TRKA degradation in KM12 cells at 10 nM compound, category of percentage degradation.

Take `O=C1CCC(N2C(=O)c3ccc(N4CCN(c5ccc(C(=O)Nc6n[nH]c7ccc(Cc8cc(F)cc(F)c8)cc67)c(NC6CCOCC6)c5)CC4)cc3C2=O)C(=O)N1` (centres unmarked) [TR-269, N-(5-(3,5-Difluorobenzyl)-1H-indazol-3-yl)-4-(4-(2-(2,6-dioxopiperidin-3-yl)-1,3-dioxoisoindolin-5-yl)piperazin-1-yl)-2-((tetrahydro-2H-pyran-4-yl)amino)benzamide]: in assay [1] (setting [3]), the half-inhibitory concentration (IC50) (commonly the midpoint of a concentration-inhibition curve) was determined as 44.6 nM. In addition, the percent degradation of TPM3-TRKA protein at 0.01 µM in assay [2] (setting [4]) was less than 50%.

Turning to `O=C1CCC(N2C(=O)c3ccc(N4CCC(CN5CCN(c6ccc(C(=O)Nc7n[nH]c8ccc(Cc9cc(F)cc(F)c9)cc78)c(NC7CCOCC7)c6)CC5)C4)cc3C2=O)C(=O)N1` (centres unmarked) [TR-270, N-(5-(3,5-difluorobenzyl)-1H-indazol-3-yl)-4-(4-((1-(2-(2,6-dioxopiperidin-3-yl)-1,3-dioxoisoindolin-5-yl)pyrrolidin-3-yl)methyl)piperazin-1-yl)-2-((tetrahydro-2H-pyran-4-yl)amino)benzamide], in assay [1] (setting [3]), the IC50 came to 10.3 nM. Besides, the percent degradation of TPM3-TRKA protein at 0.01 µM in assay [2] (setting [4]) was greater than 80%.

Turning to `O=C1CCC(N2C(=O)c3ccc(N4CCC(CN5CCN(c6ccc(C(=O)Nc7n[nH]c8ccc(Cc9cc(F)cc(F)c9)cc78)c(NC7CCOCC7)c6)CC5)CC4)cc3C2=O)C(=O)N1` (centres unmarked) [TR-271, N-(5-(3,5-Difluorobenzyl)-1H-indazol-3-yl)-4-(4-((1-(2-(2,6-dioxopiperidin-3-yl)-1,3-dioxoisoindolin-5-yl)piperidin-4-yl)methyl)piperazin-1-yl)-2-((tetrahydro-2H-pyran-4-yl)amino)benzamide], in assay [1] (setting [3]), the 50% inhibitory concentration (IC50) was determined as 22 nM. The percent degradation of TPM3-TRKA protein at 0.01 µM in assay [2] (setting [4]) was greater than 80%.

For `O=C1CCC(N2C(=O)c3ccc(N4CCCC(CN5CCN(c6ccc(C(=O)Nc7n[nH]c8ccc(Cc9cc(F)cc(F)c9)cc78)c(NC7CCOCC7)c6)CC5)C4)cc3C2=O)C(=O)N1` (centres unmarked) [TR-272], in assay [1] (setting [3]), the half-maximal inhibitory concentration (IC50) was 20.1 nM. Also, the percent degradation of TPM3-TRKA protein at 0.01 µM in assay [2] (setting [4]) lay within 50 to 80%.

For the molecule `O=C1CCC(N2C(=O)c3ccc(NC(=O)CN4CCN(c5ccc(C(=O)Nc6n[nH]c7ccc(Cc8cc(F)cc(F)c8)cc67)c(NC6CCOCC6)c5)CC4)cc3C2=O)C(=O)N1` (centres unmarked) [TR-273, N-(5-(3,5-Difluorobenzyl)-1H-indazol-3-yl)-4-(4-(2-((2-(2,6-dioxopiperidin-3-yl)-1,3-dioxoisoindolin-5-yl)amino)-2-oxoethyl)piperazin-1-yl)-2-((tetrahydro-2H-pyran-4-yl)amino)benzamide], in assay [1] (setting [3]), the IC50 came to 41.1 nM. For the same molecule, the percent degradation of TPM3-TRKA protein at 0.01 µM in assay [2] (setting [4]) is greater than 80%.

On to `O=C1CCC(N2C(=O)c3ccc(CCCN4CCN(c5ccc(C(=O)Nc6n[nH]c7ccc(Cc8cc(F)cc(F)c8)cc67)c(NC6CCOCC6)c5)CC4)cc3C2=O)C(=O)N1` (centres unmarked) [TR-276, N-(5-(3,5-difluorobenzyl)-1H-indazol-3-yl)-4-(4-(3-(2˜ (2,6-dioxopiperidin-3-yl)-1,3-dioxoisoindolin-5-yl)propyl)piperazin-1-yl)-2-((tetrahydro-2H-pyran-4-yl)amino)benzamide], for which the IC50 in assay [1] (setting [3]) is 9.9 nM. In addition, the percent degradation of TPM3-TRKA protein at 0.01 µM in assay [2] (setting [4]) was greater than 80%.

In the case of `O=C1CCC(N2C(=O)c3ccc(N4CCCC(N5CCN(c6ccc(C(=O)Nc7n[nH]c8ccc(Cc9cc(F)cc(F)c9)cc78)c(NC7CCOCC7)c6)CC5)C4)cc3C2=O)C(=O)N1` (centres unmarked) [TR-278, N-(5-(3,5-Difluorobenzyl)-1H-indazol-3-yl)-4-(4-(1-(2-(2,6-dioxopiperidin-3-yl)-1,3-dioxoisoindolin-5-yl)piperidin-3-yl)piperazin-1-yl)-2-((tetrahydro-2/-pyran-4-yl)amino)benzamide], the IC50 in assay [1] (setting [3]) turned out to be 34.7 nM. Besides, the percent degradation of TPM3-TRKA protein at 0.01 µM in assay [2] (setting [4]) lay in the range of 50 to 80%.

`O=C1CCC(N2C(=O)c3ccc(CN4CCCC(N5CCN(c6ccc(C(=O)Nc7n[nH]c8ccc(Cc9cc(F)cc(F)c9)cc78)c(NC7CCOCC7)c6)CC5)C4)cc3C2=O)C(=O)N1` (centres unmarked) [TR-279, N-(5-(3,5-difluorobenzyl)-1H-indazol-3-yl)-4-(4-(1-((2-(2,6-dioxopiperidin-3-yl)-1,3-dioxoisoindolin-5-yl)methyl)piperidin-3-yl)piperazin-1-yl)-2-((tetrahydro-2H-pyran-4-yl)amino)benzamide]: in assay [1] (setting [3]), the 50% inhibitory concentration (IC50) amounted to 19 nM. The percent degradation of TPM3-TRKA protein at 0.01 µM in assay [2] (setting [4]) is greater than 80%.

`O=C1CCC(N2C(=O)c3ccc(N4CCC(N5CCN(c6ccc(C(=O)Nc7n[nH]c8ccc(Cc9cc(F)cc(F)c9)cc78)c(NC7CCOCC7)c6)CC5)CC4)cc3C2=O)C(=O)N1` (centres unmarked) [TR-280, N-(5-(3,5-difluorobenzyl)-1H-indazol-3-yl)-4-(4-(1-(2-(2,6-dioxopiperidin-3-yl)-1,3-dioxoisoindolin-5-yl)piperidin-4-yl)piperazin-1-yl)-2-((tetrahydro-2H-pyran-4-yl)amino)benzamide]: half-maximal inhibition in assay [1] (KM12, 72 h) (IC50) required 4.3 nM. In addition, in assay [2] (KM12, 16 h), the percent degradation of TPM3-TRKA protein at 0.01 µM is greater than 80%.

For the molecule `O=C1CCC(N2C(=O)c3ccc(CN4CCC(N5CCN(c6ccc(C(=O)Nc7n[nH]c8ccc(Cc9cc(F)cc(F)c9)cc78)c(NC7CCOCC7)c6)CC5)CC4)cc3C2=O)C(=O)N1` (centres unmarked) [TR-281, N-(5-(3,5-difluorobenzyl)-1H-indazol-3-yl)-4-(4-(1-((2-(2,6-dioxopiperidin-3-yl)-1,3-dioxoisoindolin-5-yl)methyl)piperidin-4-yl)piperazin-1-yl)-2-((tetrahydro-2H-pyran-4-yl)amino)benzamide], in assay [1] (setting [3]), the IC50 turned out to be 17.4 nM. The percent degradation of TPM3-TRKA protein at 0.01 µM in assay [2] (setting [4]) was greater than 80%.

Regarding `O=C1CCC(N2C(=O)c3ccc(N4CCOC(CN5CCN(c6ccc(C(=O)Nc7n[nH]c8ccc(Cc9cc(F)cc(F)c9)cc78)c(NC7CCOCC7)c6)CC5)C4)cc3C2=O)C(=O)N1` (centres unmarked) [TR-282, N-(5-(3,5-difluorobenzyl)-1H-indazol-3-yl)-4-(4-((4-(2-(2,6-dioxopiperidin-3-yl)-1,3-dioxoisoindolin-5-yl)morpholin-2-yl)methyl)piperazin-1-yl)-2-((tetrahydro-2H-pyran-4-yl)amino)benzamide], the IC50 in assay [1] (setting [3]) worked out at 6.3 nM. In addition, the percent degradation of TPM3-TRKA protein at 0.01 µM in assay [2] (setting [4]) is greater than 80%.

`O=C1CCC(N2C(=O)c3ccc(C#CCN4CCN(c5ccc(C(=O)Nc6n[nH]c7ccc(Cc8cc(F)cc(F)c8)cc67)c(NC6CCOCC6)c5)CC4)cc3C2=O)C(=O)N1` (centres unmarked) [TR-283, N-(5-(3,5-Difluorobenzyl)-1H-indazol-3-yl)-4-(4-(3-(2-(2,6-dioxopiperidin-3-yl)-1,3-dioxoisoindolin-5-yl)prop-2-yn-1-yl)piperazin-1-yl)-2-((tetrahydro-28-pyran-4-yl)amino)benzamide]: the half-maximal inhibitory concentration (IC50) in assay [1] (setting [3]) was 54 nM. For the same molecule, the percent degradation of TPM3-TRKA protein at 0.01 µM in assay [2] (setting [4]) was greater than 80%.

With `O=C1CCC(N2C(=O)c3ccc(N4CCC(N5CCN(c6ccc(C(=O)Nc7n[nH]c8ccc(Cc9cc(F)cc(F)c9)cc78)c(NC7CCOCC7)c6)CC5)C4)cc3C2=O)C(=O)N1` (centres unmarked) [TR-284, N-(5-(3,5-difluorobenzyl)-1H-indazol-3-yl)-4-(4-(1-(2-(2,6-dioxopiperidin-3-yl)-1,3-dioxoisoindolin-5-yl)pyrrolidin-3-yl)piperazin-1-yl)-2-((tetrahydro-2H-pyran-4-yl)amino)benzamide], the half-maximal inhibitory concentration (IC50) in assay [1] (setting [3]) worked out at 5 nM. In addition, the percent degradation of TPM3-TRKA protein at 0.01 µM in assay [2] (setting [4]) was greater than 80%.
